Source: patent US5597820A, “1, 4-benzoxazine derivative and pharmaceutical compositions containing the same” (Kanebo, Ltd., priority 1994, dated 1997)

Legend:
[1] = biological target: T1, Na^+ /H^+ exchange (Rattus norvegicus, UniProt P26431); test: Na^+ /H^+ Exchange inhibitory activity (sodium propionate-induced swelling of platelets); type: cell-based, rat (male Wistar rats); details: rat platelet-rich plasma, 37° C.
T1 construct: A supernatant was separated to prepare platelet-rich plasma; endogenous in cells; host or cells: platelets in platelet-rich plasma from male Wistar rats (abdominal aorta blood)
T1 sequence (P26431 whole entry): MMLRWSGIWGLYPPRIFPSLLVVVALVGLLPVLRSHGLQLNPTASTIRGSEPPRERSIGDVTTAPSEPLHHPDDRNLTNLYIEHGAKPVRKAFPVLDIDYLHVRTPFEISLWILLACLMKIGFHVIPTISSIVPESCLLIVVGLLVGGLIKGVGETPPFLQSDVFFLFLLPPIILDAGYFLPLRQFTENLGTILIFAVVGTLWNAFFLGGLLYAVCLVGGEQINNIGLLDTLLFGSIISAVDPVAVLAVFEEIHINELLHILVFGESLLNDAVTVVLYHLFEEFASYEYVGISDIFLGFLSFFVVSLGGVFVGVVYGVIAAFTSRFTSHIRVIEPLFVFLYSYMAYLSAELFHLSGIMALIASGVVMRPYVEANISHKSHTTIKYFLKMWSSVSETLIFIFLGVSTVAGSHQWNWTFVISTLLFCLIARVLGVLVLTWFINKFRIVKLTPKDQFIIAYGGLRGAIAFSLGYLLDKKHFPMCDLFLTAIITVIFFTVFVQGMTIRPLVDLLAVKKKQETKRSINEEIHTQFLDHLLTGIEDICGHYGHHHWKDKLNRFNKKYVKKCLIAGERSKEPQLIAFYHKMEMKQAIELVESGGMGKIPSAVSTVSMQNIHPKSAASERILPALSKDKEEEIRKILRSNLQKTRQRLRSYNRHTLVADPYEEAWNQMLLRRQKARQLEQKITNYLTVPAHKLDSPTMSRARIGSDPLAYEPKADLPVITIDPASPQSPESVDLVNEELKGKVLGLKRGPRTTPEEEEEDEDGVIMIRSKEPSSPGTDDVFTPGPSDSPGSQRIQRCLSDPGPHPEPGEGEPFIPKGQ
Procedure: The compounds of the present invention were assessed for their Na^+ /H^+ exchange inhibitory activity based on an activity to inhibit sodium propionate-induced swelling of platelets in accordance with the method of Rosskoph et al. [Journal of Hypertension, 9, 231-238 (1991)].
First, platelet-rich plasma was prepared in accordance with the method of Mammen et al. [Diabetes Research and Clinical Practice, 9(3), 265-272 (1990)]. Briefly, male Wistar rats weighing 190 to 420 g were abdominally operated under anesthesia with ether and blood was taken from the abdominal aorta. For inhibiting blood coagulation, ACD solution (a mixture of 65 mM citric acid, 85 mM sodium citrate, 11 mM dextrose) was added to blood and this treated blood was centrifuged at 90× g for 10 minutes. A supernatant was separated to prepare platelet-rich plasma.
Then, a solution of the test compounds in dimethylsulfoxide was added to 140 mM sodium propionate buffer solution. To this mixture was added the platelet-rich plasma prepared above and a decrease in optical density was recorded with the passage of time at 37° C. using a platelet aggregometer (turbidimeter) and a X-Y recorder to calculate a decrease rate in optical density after mixing with platelet-rich plasma [decrease rate in optical density in the presence of the test compounds (D)]. On the other hand, the solvent dimethylsulfoxide alone was used instead of the solution of the test compounds and the decrease in optical density was recorded in the similar manner to calculate a decrease rate in optical density [control (C)]. A swelling inhibitory rate (%) was calculated using the following formula:
Swelling inhibitory rate (%)=(1-D/C)×100

[2] = tested on: reperfusion arrhythmia; test: Inhibitory activity against reperfusion arrhythmia (rat acute myocardial infarction model); type: in vivo, rat (male Sprague-Dawley rats); details: femoral vein
Procedure: Using a rat acute myocardial infarction model, the compounds of the present invention were assessed for their inhibitory activity against reperfusion arrhythmia in accordance with the method of […] al. [European Journal of Pharmacology, 194, 7-10 (1991)]. Male Sprague-Dawley rats (weighing 310 to 490 g) were anesthetized by intraperitoneal administration of sodium pentobarbital (50 mg/kg). Under anesthesia, the rats were cannulated via trachea and the cannula was linked to a respirator. An electrocardiogram (the lead II) was obtained from electrodes attached to the limbs using bioelectric amplifier while maintaining the body temperature at 37° C. The chest of the rats were opened at the left fifth intercostal space and the pericardium was cut open to reveal the heart. Then a solution of the test compound in a mixed solvent of polyethylene glycol 400, ethanol and a physiological saline [3:3:14 (v/v)] was administered into the femoral vein. Ten minutes after the administration of the compound, the origin of the left coronary artery was occluded. After occlusion for 5 minutes, reperfusion was carried out for 10 minutes and a duration (second) of a ventricular fibrillation after reperfusion was measured from the electrocardiogram (mean±standard error, n=3 to 10). The ventricular fibrillation was assessed in accordance with the guideline of The Lambeth Convention [Cardiovascular Research, 22, 447-455 (1988)]. On the other hand, the mixed solvent of polyethylene glycol 400, ethanol and a physiological saline [3:3:14 (v/v)] alone was used as a control and a duration (second) of the ventricular fibrillation was measured in a similar manner. Using male Sprague-Dawley rats weighing 310 to 440 g, the duration (second) of the ventricular fibrillation was measured in the same manner as in Test 1 (n=4 to 10). Using male Sprague-Dawley rats weighing 310 to 400 g, the duration (second) of the ventricular fibrillation was measured in the same manner as in Test 1 (n=4 to 6).

[3] = tested on: myocardial infarction lesion; test: Activity to reduce myocardial infarction lesion (rat acute myocardial infarction model); type: in vivo, rat (male Sprague-Dawley rats); details: femoral vein
Procedure: Using a rat acute myocardial infarction model, the compounds of the present invention were assessed for their activity to reduce myocardial infarction lesion in accordance with the method of Petty et al. [European Journal of Pharmacology, 192, 383-388 (1991)]. Male Sprague-Dawley rats (weighing 320 to 430 g) were anesthetized by intraperitoneal administration of sodium pentobarbital (50 mg/kg). Under anesthesia, the rats were cannulated via trachea and the cannula was linked to a respirator and then the body temperature was maintained at 37° C. The chest of the rats were opened at the left fifth intercostal space and the pericardium was cut open to reveal the heart. Then a solution of the test compound in a mixed solvent of polyethylene glycol 400, ethanol and a physiological saline [3:3:14 (v/v)] was administered into the femoral vein. Ten minutes after the administration of the compound, the origin of the left coronary artery was occluded. After occlusion for 30 minutes, reperfusion was carried out for 2 hours. After reperfusion, the heart was removed and the origin of the left coronary artery was ligated again. The heart was cannulated via the aorta and a 0.025% solution of Evans blue was perfused using a syringe pump to distinguish an ischemic region (not stained with Evans blue) and a non-ischemic region (stained with Evans blue). The ischemic region was incubated in a 0.1% triphenyltetrazolium chloride (TTC) solution at 37° C. for 30 minutes to distinguish a TTC-stained region and a non-stained region (infarction region).

[4] = Test 2 (Table 4), 0.1 mg/kg, control 146.1 ± 5.9, **: p < 0.01
[5] = Test 2 (Table 7), 1 mg/kg, control 45.2 ± 4.1, **: p < 0.01
[6] = Test 3 (Table 5), 0.1 mg/kg, control 171.0 ± 5.8, Example 19 *: p < 0.05, Example 21 **: p < 0.01

SMILES	IC50 [1]	further results
N=C(N)NC(=O)c1nc(Cl)c(N)nc1N [Amiloride, amiloride, reference compound]	13 µM	–
CC(C)N1C(=O)C(C)(C)Oc2cc(C(=O)N=C(N)N)ccc21 [Example 1, N-amidino-2,2-dimethyl-4-(2-propyl)-3-oxo-3,4-dihydro-2H-1,4-benzoxazine-7-carboxamide]	0.2 µM	–
CC1Oc2cc(C(=O)NC(=N)N)ccc2N(C(C)C)C1=O (centres unmarked) [Example 2, N-amidino-2-methyl-4-(2-propyl)-3-oxo-3,4-dihydro-2H-1,4-benzoxazine-7-carboxamide]	0.094 µM	Duration (second) of ventricular fibrillation (mean ± standard error) ([2]; Test 1 (Table 3), 0.01 mg/kg, control 92.6 ± 20.2): 118.9 ± 59.4 s; Duration (second) of ventricular fibrillation (mean ± standard error) ([2]; Test 1 (Table 3), 0.1 mg/kg, control 92.6 ± 20.2, *: p < 0.05): 19.1 ± 12.4 s; Duration (second) of ventricular fibrillation (mean ± standard error) ([2]; Test 1 (Table 3), 1 mg/kg, control 92.6 ± 20.2, *: p < 0.05): 0.0 ± 0.0 s; Infarction region/ischemic region (%) (mean ± standard error) ([3]; Test 1 (Table 6), 0.01 mg/kg, control 51.4 ± 2.4): 41.7 ± 10.3%; Infarction region/ischemic region (%) (mean ± standard error) ([3]; Test 1 (Table 6), 0.1 mg/kg, control 51.4 ± 2.4): 35.6 ± 3.5%; Infarction region/ischemic region (%) (mean ± standard error) ([3]; Test 1 (Table 6), 1 mg/kg, control 51.4 ± 2.4, **: p < 0.01): 7.2 ± 4.9%
CC(C)N1C(=O)COc2cc(C(=O)NC(=N)N)ccc21 [Example 3, N-amidino-4-(2-propyl)-3-oxo-3,4-dihydro-2H-1,4-benzoxazine-7-carboxamide]	0.17 µM	–
CCN1C(=O)C(C)Oc2cc(C(=O)NC(=N)N)ccc21 (centres unmarked) [Example 4, N-amidino-4-ethyl-2-methyl-3-oxo-3,4-dihydro-2H-1,4-benzoxazine-7-carboxamide]	0.16 µM	–
CC(C)N1C(=O)C(C)(C)Oc2ccc(C(=O)NC(=N)N)cc21.Cl [Example 5, N-amidino-2,2-dimethyl-4-(2-propyl)-3-oxo-3,4-dihydro-2H-1,4-benzoxazine-6-carboxamide hydrochloride]	0.12 µM	Duration (second) of ventricular fibrillation (mean ± standard error) [2, 4]: 80.2 ± 27.8 s
CCN1C(=O)C(C)Oc2ccc(C(=O)NC(=N)N)cc21 (centres unmarked) [Example 6, N-amidino-4-ethyl-2-methyl-3-oxo-3,4-dihydro-2H-1,4-benzoxazine-6-carboxamide]	0.29 µM	–
CCN1C(=O)C(C)(C)Oc2ccc(C(=O)NC(=N)N)cc21 [Example 7, N-amidino-2,2-dimethyl-4-ethyl-3-oxo-3,4-dihydro-2H-1,4-benzoxazine-6-carboxamide]	0.38 µM	–
CC1Oc2cc(C(=O)NC(=N)N)ccc2NC1=O (centres unmarked) [Example 8, N-amidino-2-methyl-3-oxo-3,4-dihydro-2H-1,4-benzoxazine-7-carboxamide]	0.81 µM	–
CCC1Oc2cc(C(=O)NC(=N)N)ccc2N(C(C)C)C1=O (centres unmarked) [Example 9, N-amidino-2-ethyl-4-(2-propyl)-3-oxo-3,4-dihydro-2H-1,4-benzoxazine-7-carboxamide]	0.034 µM	–
CC1Oc2cc(C(=O)NC(=N)N)ccc2N(C2CCCC2)C1=O (centres unmarked) [Example 10, N-amidino-4-cyclopentyl-2-methyl-3-oxo-3,4-dihydro-2H-1,4-benzoxazine-7-carboxamide]	0.062 µM	–
CCN1C(=O)COc2cc(C(=O)NC(=N)N)ccc21 [Example 12, N-amidino-4-ethyl-3-oxo-3,4-dihydro-2H-1,4-benzoxazine-7-carboxamide]	0.36 µM	–
CCC1Oc2cc(C(=O)NC(=N)N)ccc2N(CC)C1=O (centres unmarked) [Example 13, N-amidino-2,4-diethyl-3-oxo-3,4-dihydro-2H-1,4-benzoxazine-7-carboxamide]	0.083 µM	–
CC[C@@H]1Oc2cc(C(=O)NC(=N)N)ccc2N(C(C)C)C1=O [Example 14, (S)-N-Amidino-2-ethyl-4-(2-propyl)-3-oxo-3,4-dihydro-2H-1,4-benzoxazine-7-carboxamide]	0.073 µM	–
CC[C@H]1Oc2cc(C(=O)NC(=N)N)ccc2N(C(C)C)C1=O [Example 15, (R)-N-Amidino-2-ethyl-4-(2-propyl)-3-oxo-3,4-dihydro-2H-1,4-benzoxazine-7-carboxamide]	0.036 µM	–
CC[C@@H]1Oc2cc(C(=O)NC(=N)N)ccc2N(CC)C1=O [Example 16, (S)-N-amidino-2,4-diethyl-3-oxo-3,4-dihydro-2H-1,4-benzoxazine-7-carboxamide]	0.045 µM	–
CC[C@H]1Oc2cc(C(=O)NC(=N)N)ccc2N(CC)C1=O [Example 17, (R)-N-amidino-2,4-diethyl-3-oxo-3,4-dihydro-2H-1,4-benzoxazine-7-carboxamide]	0.071 µM	–
CC[C@H]1Oc2cc(C(=O)NC(=N)N)ccc2N(C(C)C)C1=O.Cl [Example 18, (R)-N-Amidino-2-ethyl-4-(2-propyl)-3-oxo-3,4-dihydro-2H-1,4-benzoxazine-7-carboxamide hydrochloride]	0.038 µM	Duration (second) of ventricular fibrillation (mean ± standard error) ([2]; Test 2 (Table 4), 0.01 mg/kg, control 146.1 ± 5.9): 75.5 ± 29.2 s; Duration (second) of ventricular fibrillation (mean ± standard error) [2, 4]: 31.4 ± 20.6 s; Duration (second) of ventricular fibrillation (mean ± standard error) ([2]; Test 2 (Table 4), 1 mg/kg, control 146.1 ± 5.9, **: p < 0.01): 0.0 ± 0.0 s; Infarction region/ischemic region (%) (mean ± standard error) [3, 5]: 21.7 ± 5.5%
CC[C@H]1Oc2cc(C(=O)NC(=N)N)ccc2N(C(C)C)C1=O.CS(=O)(=O)O [Example 19, (R)-N-Amidino-2-ethyl-4-(2-propyl)-3-oxo-3,4-dihydro-2H-1,4-benzoxazine-7-carboxamide methanesulfonate]	0.044 µM	Duration (second) of ventricular fibrillation (mean ± standard error) ([2]; Test 3 (Table 5), 0.01 mg/kg, control 171.0 ± 5.8): 116.8 ± 40.2 s; Duration (second) of ventricular fibrillation (mean ± standard error) [2, 6]: 36.5 ± 32.2 s; Duration (second) of ventricular fibrillation (mean ± standard error) ([2]; Test 3 (Table 5), 1 mg/kg, control 171.0 ± 5.8, *: p < 0.05): 0.0 ± 0.0 s; Infarction region/ischemic region (%) (mean ± standard error) [3, 5]: 20.7 ± 5.2%
CC[C@@H]1Oc2cc(C(=O)NC(=N)N)ccc2N(CC)C1=O.Cl [Example 20, (S)-N-amidino-2,4-diethyl-3-oxo-3,4-dihydro-2H-1,4-benzoxazine-7-carboxamide hydrochloride]	0.049 µM	Duration (second) of ventricular fibrillation (mean ± standard error) [2, 4]: 27.2 ± 27.2 s
CC[C@@H]1Oc2cc(C(=O)NC(=N)N)ccc2N(CC)C1=O.CS(=O)(=O)O [Example 21, (S)-N-amidino-2,4-diethyl-3-oxo-3,4-dihydro-2H-1,4-benzoxazine-7-carboxamide methanesulfonate]	0.089 µM	Duration (second) of ventricular fibrillation (mean ± standard error) [2, 6]: 69.0 ± 31.1 s
